Measurements as given in EP4755393A1, “USE OF PROTON PUMP REGULATOR IN PREPARATION OF DRUG” (Shanghai Quietd Biotechnology Co., Ltd., priority 2023, dated 2025).
“Also recorded” adds a separate entry of the source. Ends that are not written are not given here.

Tests used:
[1] = tested on: APP/PS1 transgenic mice; test: Novel object recognition test in AD mice; format: in vivo; conditions: continuously for 1 week
[2] = target: hATP6V1B2 (Homo sapiens, UniProt P21281); test: Co-immunoprecipitation of Myc-tagged hATP6V1B2 with GFP-tagged QD202 and site mutants (HEK 293 lysates, western blot); format: binding; conditions: expressed from pEGFP-N3 plasmids in HEK 293, anti-GFP IP, FIG. 7A, 7B
Procedure: Expression plasmids of hATP6V1B2, QD202, site-mutated QD202(D15A), site-mutated QD202(V16A), site-mutated QD202(P13A), and site-mutated QD202(V14A) were constructed respectively. The hATP6V1B2 was co-transfected into HEK 293 cells with the expression plasmids of QD202, site-mutated QD202(D15A), site-mutated QD202(V16A), site-mutated QD202(P13A) and site-mutated QD202(V14A), respectively, and cellular proteins were extracted 48 h after transfection. Table 1: Plasmid sequences
Protein extraction was performed using Pierce RIPA lysis buffer. Taking cells in a 60 mm culture dish as an example, 500 µL of Pierce RIPA lysis buffer containing protease inhibitors was added. Cells were collected and transferred to a clean 1.5 mL EP tube using a cell scraper. After mixing for 1 h on a rotary mixer at 4°C, the cells were centrifuged at 13,000 rpm at 4°C for 10 min to remove cell debris. The hATP6V1B2 was equally divided into […], which were then mixed separately with the cell lysates transfected with QD202, site-mutated QD202(P13A), site-mutated QD202(V14A), site-mutated QD202(D15A), and site-mutated QD202(V16A), 30 µL of the supernatant was taken and mixed with 10 µL of 4× loading buffer, followed by boiling at 100°C for 5 min and storage at -20°C; 2 µL of the antibody (Anti-GFP, Roche, 11814460001) was added to the remaining 470 µL of the protein lysate, and the mixture was incubated overnight (about 16-18 h) on a rotary shaker at 4°C. 30 µL of Protein G Sepharose beads (Roche, 11243233001) were placed in an EP tube and washed three times with Pierce RIPA lysis buffer to eliminate interference from the original stock solution. The protein that had been incubated with the antibody overnight was added to the Sepharose beads, followed by mixing and incubation at 4°C for 2 h to ensure sufficient binding between the antibody and the protein. The mixture was centrifuged at 4000 rpm for 1 min. The supernatant was aspirated off, followed by the addition of 600 µL of Pierce RIPA lysis buffer. The tube was gently inverted, followed by centrifugation to collect the supernatant. The above steps were repeated three times to wash away non-specifically bound proteins. Finally, 30 µL of 1×loading buffer was added, the mixture was mixed well, heated at 60°C for 20 min to denature the protein, and then stored at -20°C. The protein was examined by western blot (Myc-Tag (9B11) Mouse mAb, CST, 2276S; Anti-GFP, Roche, 11814460001).
The hATP6V1B2 was co-transfected into the host cell line HEK 293 with the expression plasmids of QD202, site-mutated QD202(P13A), site-mutated QD202(V14A), site-mutated QD202(D15A) and site-mutated QD202(V16A), respectively. […] It is therefore hypothesized that valine at position 16 of QD202 is one of the key amino acids for the binding between hATP6V1B2 and QD202, whereas proline at position 13, valine at position 14 and aspartic acid at position 15 can be replaced with alanine, as illustrated in FIG. 7A and FIG. 7B.

[3] = tested on: homozygous DIR-Ki mice; test: Novel object recognition test in DIR-Ki mice; format: in vivo; conditions: intravenous, 7 consecutive days, FIG. 15
Procedure: Thirty homozygous DIR-Ki mice were divided into three groups: the control group (HO+PBS), the QD202 1 mg/kg group (HO+QD202 1 mpk), and the QD202 5 mg/kg group (HO+QD202 5 mpk). After 7 consecutive days of intravenous administration in the QD202-treated groups, the novel object recognition test was initiated.
Square PVC plastic box (dimensions: 25 cm × 25 cm × 30 cm), two identical size 1 batteries, one plastic toy of the same height as the batteries, experimental observation box, camera, and video recording software
On the day of the experiment, the mice were allowed to acclimatize to the experimental room for 30 min in advance. The test was divided into an acclimation period and a testing period.
Familiarization phase: Two identical batteries were placed 5 cm away from a box wall, with a 5 cm gap between the two batteries. The mice were placed in the center of the area and allowed to explore freely for 10 min. […]
Testing period: A toy with size and height similar to those of the battery was randomly used to replace one battery and placed in the same position as the original battery. […] The entire process was recorded using a camera. […] After the experiment, the time taken for the mice to explore novel and familiar objects in the video was counted manually, and the time recognition index of the novel objects was calculated. […]

[4] = tested on: Male SD rats; conditions: rat, in vivo

Sequence of hATP6V1B2 (P21281 whole entry): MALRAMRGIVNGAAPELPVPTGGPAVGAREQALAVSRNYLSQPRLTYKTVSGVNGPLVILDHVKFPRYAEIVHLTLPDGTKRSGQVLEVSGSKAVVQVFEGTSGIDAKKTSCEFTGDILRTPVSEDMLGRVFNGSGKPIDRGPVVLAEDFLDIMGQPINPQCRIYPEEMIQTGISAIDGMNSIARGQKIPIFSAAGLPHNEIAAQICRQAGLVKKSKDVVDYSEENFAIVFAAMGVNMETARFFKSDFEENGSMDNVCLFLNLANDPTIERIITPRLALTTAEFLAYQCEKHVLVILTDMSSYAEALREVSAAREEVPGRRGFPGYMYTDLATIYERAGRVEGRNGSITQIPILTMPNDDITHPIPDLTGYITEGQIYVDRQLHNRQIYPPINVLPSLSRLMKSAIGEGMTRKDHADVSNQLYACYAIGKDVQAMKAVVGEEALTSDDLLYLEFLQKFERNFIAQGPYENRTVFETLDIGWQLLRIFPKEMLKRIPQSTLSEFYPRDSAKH

Substance: QD202: Polypeptide synthesized according to the amino acid sequence set forth in SEQ ID NO: 1; ATP6V1B2 regulator / DIR regulator (YGRKKRRQRRRSPVDVVCS; not fully specified)
- learning and cognitive functions in the novel object recognition test ([1]; intragastric, 6.25 mg/kg, ten-month-old APP/PS1 mice, FIG. 9): obvious improvement of learning and cognitive functions
- learning and cognitive functions in novel object recognition ([1]; intravenous injection, 1.25 mg/kg, APP/PS1 mice of 10 months old, FIG. 11): obvious improvement on learning and cognitive functions
- binding to Myc-tagged hATP6V1B2 (co-immunoprecipitation) [2]: bind to
- novel object recognition index ([3]; 1.0 mg/kg): significantly improved
- novel object recognition index ([3]; 5.0 mg/kg): significantly improved
- neurobehavioral score [4]: lower than that of the Model + QD202 placebo group with a statistical difference (p<0.05); also recorded: lower than that of the Model + QD202 placebo group with extremely significant statistical differences (p<0.001)
